Tests used:
HEL cells = experiment: Cytotoxicity in HEL cells: cell morphology; type: cell-based, human; details: microscopically detectable alteration of cell morphology
[1] = system: herpesviruses and poxviruses; details: for Activity against herpesviruses and poxviruses: in vitro
VZV TK+ strain Oka = experiment: microbe, parasite or virus in culture; type: cell-based, varicella-zoster virus; details: Human alphaherpesvirus 3, Fibroblast, read-out: EC50 VZV TK+ strain Oka
[2] = system: Vaccinia virus Lederle strain; experiment: microbe, parasite or virus in culture; type: cell-based
Feline herpesvirus = experiment: Antiviral activity against feline herpesvirus in CRFK cells; type: cell-based
VZV = experiment: Antiviral activity against VZV, strains summarised in text; type: cell-based, varicella-zoster virus; details: for EC50: Human alphaherpesvirus 3, read-out: EC50 VZV, range over strains
HSV = experiment: Antiviral activity against HSV, strains summarised in text; type: cell-based, herpes simplex virus; details: for EC50: read-out: EC50 HSV, range over strains
HCMV = experiment: Antiviral activity against HCMV, strains summarised in text; type: cell-based, human cytomegalovirus; details: for EC50: Human betaherpesvirus 5, read-out: EC50 HCMV, range over strains
VZV TK- strain YS/R = type: cell-based, varicella-zoster virus; details: HEL fibroblasts
VZV TK+ strain YS = type: cell-based, varicella-zoster virus; details: HEL fibroblasts
[3] = system: herpesviruses and poxviruses; details: EC50 in the μM range; cited from earlier work

Compound: CCCCCCCCCCCCCCCCOCCCOP(=O)(CCOCCn1cnc2c(=O)[nH]cnc21)OCCCOCCCCCCCCCCCCCCCC [Compound 3, Bis 3-(hexadecyloxypropyl) ester of 9-[2-(phosphonomethoxy)ethyl]hypoxanthine]
- Cytotoxicity in HEL cells, cell morphology, MCC (minimum cytotoxic concentration) (HEL cells): ≥117 μM
- Activity against herpesviruses and poxviruses [1]: inactive

Compound: O=c1[nH]c(=O)n([C@H]2C[C@H](O)[C@@H](CO)O2)cc1/C=C/Br [Brivudin, reference compound]
- EC50 (VZV TK+ strain Oka): 10 ± 10 nM
- EC50 ([2]; Orthopoxvirus vaccinia, Fibroblast, read-out: EC50 Vaccinia virus Lederle): 15000 ± 17000 nM
- Cytotoxicity in HEL cells, cell morphology, MCC (minimum cytotoxic concentration) (HEL cells): >300 μM

Compound: CCCCCCCCCCCCCCCCOCCCOP(=O)(O)CO[C@H](CO)Cn1cnc2c(=O)[nH]c(N)nc21 [Compound 16, 3-(Hexadecyloxypropyl) ester of 9-(S)-[3-hydroxy-2-(phosphonomethoxy)propyl]guanine]
- Activity against feline herpesvirus (Feline herpesvirus; CRFK cells): inactive
- Cytotoxicity in HEL cells, cell morphology, MCC (minimum cytotoxic concentration) (HEL cells): ≥1.3 μM
- EC50 (VZV): 1 to 2.5 nM
- EC50 (HSV): 7 to 90 nM
- EC50 (HCMV): 2 to 7 nM
- SIs fold lower compared to compound 18 ([1]; across viruses): 2- to 66 fold

Compound: CCCCCCCCCCCCCCCCOCCCOP(=O)(CO[C@H](CO)Cn1cnc2c(=O)[nH]c(N)nc21)OCCCOCCCCCCCCCCCCCCCC [Compound 14, Bis 3-(hexadecyloxypropyl) ester of 9-(S)-[3-hydroxy-2-(phosphonomethoxy)propyl]guanine]
- Selectivity index (ratio CC50 to EC50) VZV YS/R (VZV TK- strain YS/R): >57
- Fold difference of EC50 versus parent compound (S)-HPMPG, feline herpesvirus (Feline herpesvirus; printed as lower than parent): 157 fold
- Fold difference of EC50 versus parent compound (S)-HPMPG, VACV [2]: 41 fold
- Cytotoxicity in HEL cells, cell morphology, MCC (minimum cytotoxic concentration) (HEL cells): ≥22.6 μM
- Fold difference of EC50 versus parent compound (S)-HPMPG, VZV (VZV; printed as lower than parent): 7 fold
- Fold difference of EC50 versus parent compound (S)-HPMPG, HSV (HSV; printed as lower than parent): 15- to 40 fold
- Fold difference of EC50 versus parent compound (S)-HPMPG, HCMV (HCMV; printed as lower than parent): 7 fold

Compound: CCCCCCCCCCCCCCCCOCCCOP1(=O)CO[C@@H](Cn2cnc3c(=O)[nH]cnc32)CO1 (stereo partly drawn) [Compound 17, 3-(Hexadecyloxypropyl) ester of 9-{[(5S)-2-hydroxy-2-oxido-1,4,2-dioxaphosphinan-5-yl]methyl}hypoxanthine]
- Cytotoxicity in HEL cells, cell morphology, MCC (minimum cytotoxic concentration) (HEL cells): ≥7 μM
- Activity against herpesviruses and poxviruses [1]: totally inactive

Compound: CCCCCCCCCCCCCCCCOCCCOP(=O)(O)CO[C@H](CO)Cn1cnc2c(=O)[nH]cnc21 [Compound 15, 3-(Hexadecyloxypropyl) ester of 9-(S)-[3-hydroxy-2-(phosphonomethoxy)propyl]hypoxanthine]
- Cytotoxicity in HEL cells, cell morphology, MCC (minimum cytotoxic concentration) (HEL cells): ≥34 μM
- Activity against herpesviruses and poxviruses [1]: totally inactive

Compound: Nc1ccn(C[C@@H](CO)OCP(=O)(O)O)c(=O)n1.O.O [Cidofovir, reference compound]
- Cytotoxicity in HEL cells, cell morphology, MCC (minimum cytotoxic concentration) (HEL cells): >317 μM

Compound: Nc1nc2c(ncn2COCCO)c(=O)[nH]1 [Acyclovir, reference compound]
- Cytotoxicity in HEL cells, cell morphology, MCC (minimum cytotoxic concentration) (HEL cells): >444 μM

Compound: Nc1nc(O)c2ncn(COC(CO)CO)c2n1 [Ganciclovir, reference compound]
- Cytotoxicity in HEL cells, cell morphology, MCC (minimum cytotoxic concentration) (HEL cells): >394 μM

Compound: Nc1nc2c(ncn2C[C@H]2COP(=O)(O)CO2)c(=O)[nH]1 [(S)-cHPMPG, reference compound]
- Cytotoxicity in HEL cells, cell morphology, MCC (minimum cytotoxic concentration) (HEL cells): >100 μM

Compound: CCCCCCCCCCCCCCCCOCCCOP1(=O)CO[C@@H](Cn2cnc3c(=O)[nH]c(N)nc32)CO1 (stereo partly drawn) [Compound 18, 3-(Hexadecyloxypropyl) ester of 9-{[(5S)-2-hydroxy-2-oxido-1,4,2-dioxaphosphinan-5-yl]methyl}guanine]
- Selectivity index (ratio CC50 to EC50) VZV YS (VZV TK+ strain YS): 19,000
- Cytotoxicity in HEL cells, cell morphology, MCC (minimum cytotoxic concentration) (HEL cells): ≥171.3 μM
- EC50 (VZV): 1 to 2.5 nM
- Selectivity index VZV, range over strains (VZV; ratio CC50 to EC50): 2700–19,000
- Selectivity index HSV, range over strains (HSV; ratio CC50 to EC50): 211–559
- EC50 (HSV): 7 to 90 nM
- EC50 (HCMV): 2 to 7 nM
- Selectivity index HCMV, range over strains (HCMV; ratio CC50 to EC50): 3800–9500

Compound: Nc1nc2c(ncn2C[C@@H](CO)OCP(=O)(O)O)c(=O)[nH]1 [(S)-HPMPG, 9-(S)-[3-hydroxy-2-(phosphonomethoxy)propyl]guanine, reference compound]
- Cytotoxicity in HEL cells, cell morphology, MCC (minimum cytotoxic concentration) (HEL cells): >100 μM
- Reported activity against HSV-1, HSV-2, VZV, CMV and vaccinia virus [3]: active

Compound: CCCCCCCCCCCCCCCCOCCCOP(=O)(CO[C@H](CO)Cn1cnc2c(=O)[nH]cnc21)OCCCOCCCCCCCCCCCCCCCC [Compound 13, Bis 3-(hexadecyloxypropyl) ester of 9-(S)-[3-hydroxy-2-(phosphonomethoxy)propyl]hypoxanthine]
- Cytotoxicity in HEL cells, cell morphology, MCC (minimum cytotoxic concentration) (HEL cells): ≥23 μM
- Activity against herpesviruses and poxviruses [1]: totally inactive

Source: PMC7115494 (European Journal of Medicinal Chemistry, 2012)
